# Entries after “also recorded” stand apart in the source; their conditions may differ.
# Tests used:
# Assay type in all cases: in vivo
# mouse femurs = experiment: AF647-ZOL signal in distant bone (femurs) in the BRONJ mouse model
# Experimental: (§1) AF647-ZOL was applied by intra-oral injection or IV injection 1 day prior to tooth extraction. FIG. 16B are images of mouse maxilla and the oral mucosa inflammation and swelling (white dotted lines, left and right panels) with various degrees of jawbone exposure (arrow) at the tooth extraction site of ZOL-treated mice (BRONJ control: n−4).
# Mice received a bolus IV injection of ZOL (440 μg/Kg; 294 μM×100 μL=8.0 μg/animal) from retro-orbital venous plexus. […] The AF647-ZOL signal in distant bone was assessed in femurs.
# mouse maxilla = experiment: intra-oral injection of AF647-ZOL into maxilla of mice pre-injected IV with FAM-ZOL, fluorescent biophotonics
# Experimental: FIG. 10 are representative images of mice maxilla. AF647-ZOL was orally injected into maxilla of mice pre-injected with 5-FAM-ZOL.
# The mouse intra-oral injection protocol was established by using a Hamilton syringe with a 33-gauge needle. Under a surgical microscope, 2 μl solution was injected to the palatal gingiva of left first molar of mouse maxilla. After slow injection, the needle was left in the tissue for 3 minutes and then gently removed.
# Using this method, 2 μl of 0 μM, 0.5 μM or 5.0 μM AF647-ZOL was injected to mouse maxillary oral mucosa to mice 6 days after retro-orbital IV injection of 100 μl of 50 μM FAM-ZOL. Mouse tissues were harvested 1 day after oral injection and maxillary bones were subjected to standardized fluorescent biophotonics image obtained using an excitation wavelength of 460 nm and a 515 nm filter (LAS3000, FUJIFILM Corp).
# [1] = tested on: ZOL-induced mouse BRONJ model; experiment: ZOL-induced mouse BRONJ/ONJ model (ZOL IV injection followed by maxillary first molar extraction)
# Experimental: as §1, with “n−4). […]” for “n−4).”
# Panel A is a diagram of the experimental time line. Mice treated by IV injection of ZOL (500 μg/kg) received an intra-oral injection of AF647-ZOL, MHDP or ETI (etidronate) one day prior to maxillary 1″ molar extraction. The development of ONJ was evaluated 14 days after tooth extraction.
# The C57BL/6J (B6) mice model of ONJ is used. The consistent tissue source in this study is mouse maxillary bone with or without tooth extraction, as well as femurs, mandibles and L4/L5 lumber bones. Tooth extraction animal models for studying wound healing in mice have been well established in our and other laboratories. Systemic bisphosphonate treatment is accomplished by IV injection and the proposed local application of FL-BP is accomplished by intraoral injection to gingival/palatal tissue of mouse maxilla. Mice are subjected to maxillary molar extraction. After anesthesia and vital signs checked, the animal is placed on a bed supporting the isoflurane tubing while keeping the mouth opening. Ophthalmic ointment (bland, e.g., Lacrilube) is applied. The maxillary molar area is wiped with 0.12% Chlorhexidine gluconate solution (Peridex, oral rinse). An autoclaved dental explorer is used as an exodontia elevator after careful reflection of the cervical mucosa to minimize post-extraction discomfort. An autoclaved cotton swab is placed on the extraction socket until the initial blood coagulation is established. Maxillary 1st molar is then extracted unilaterally from so that the remaining untreated side can be utilized for chewing. In our previous experiments, the entire procedure takes about 5-15 minutes. […]
# In a preliminary study female B6 mice were injected 500 μg/Kg ZOL (equivalent to 200 μl of 350 μM ZOL) via tail vein and one week later, maxillary left first molar was extracted. […]
# Therefore, as schematically shown in FIG. 19B mouse maxillae were treated with ZOL and then either 2 μg of MHDP was orally injected to the site of the molar to be extracted or 100 μg of MHDP was IV injected and the sites of molar extraction of treated mouse maxilla were compared to controls.
# [2] = AF647-ZOL IV 500 μM×100 μL 1 day before extraction, 2 weeks after extraction
structure (smiles),measurement,setting,value
CC1(C)C(C=CC=CC=C2N(CCCS(=O)(=O)O)c3ccc(S(=O)(=O)O)cc3C2(C)CCCCCC(=O)NCC(O)C[n+]2ccn(CC(O)(P(=O)(O)O)P(=O)(O)O)c2)=[N+](CCCS(=O)(=O)O)c2ccc(S(=O)(=O)O)cc21 (stereo not shown) [AF647-ZOL],AF647-ZOL signal in femurs,mouse femurs; IV injection 500 μM×100 μL,clear AF647-ZOL signal; also recorded: clearly observed
same,AF647-ZOL signal in femurs,mouse femurs; intra-oral injection 250 μM×2 μL,not and did not result in a detectable fluorescent signal
same,AF647 signal at and around the injection site on the palatal bone,"mouse maxilla; 2 μl of 0, 0.5 or 5.0 μM intra-oral, harvested 1 day after",dose dependent adsorption
same,displacement of pre-adsorbed FAM-ZOL in maxilla,"mouse maxilla; FAM-ZOL 100 μl of 50 μM IV 6 days before AF647-ZOL intra-oral injection, qualitative",pre-adsorbed FAM-ZOL was removed; also recorded: Reduction of FAM-ZOL signal was observed qualitatively
same,systemic distribution to the distant skeletal system (femur),mouse maxilla; intra-oral injection,did not result in systemic distribution to the distant skeletal system
same,histology of maxilla at the tooth extraction site: ONJ-like lesion,"[1]; 2 weeks after extraction, one time oral injection in ZOL-mice, FIG. 20",did not develop an ONJ-like lesion
same,"BRONJ-like lesions, jawbone exposure",[1]; [2],jawbone exposure was much attenuated; also recorded: attenuated BRONJ-like lesions
same,oral mucosa inflammation/swelling,[1]; [2],some mice which received an AF647-ZOL IV injection showed signs of oral mucosa inflammation/swelling
same,"prevention of BRONJ, tooth extraction wound healing","[1]; AF647-ZOL intra-oral 250 μM×2 μL 1 day before extraction, 2 weeks after extraction",complete prevention of BRONJ; also recorded: excellent tooth extraction wound healing without chronic inflammation or swelling
same,development of ONJ-like lesions at the tooth extraction sites,"[1]; ZOL 500 μg/kg IV, intra-oral injection one day prior to extraction, 14 days after extraction, FIG. 21",appeared to be prevented
